Measurements from patent US20250177324A1, “A[…], AND PREPARATION METHOD THEREFOR AND USE THEREOF” (SHANGHAI ZHIGEN PHARMACEUTICAL & TECHNOLOGY CO. LTD., priority 2022, published 2025).
Where a name gives a salt, the structure may show the parent alone.

Assay: Solid-state chemical stability under different storage conditions (liquid chromatography)
Type: physicochemical
Conditions: for Stability of solid state compound, 0 Days (%): liquid chromatography
Method: The HPLC conditions were as follows:
Configuration of test solution: appropriate amount of sample was dissolved and diluted with a diluent (0.03 mol/L phosphate buffer-acetonitrile (80:20)) to make 1 mg/mL solution.
Chromatographic conditions: according to the high performance liquid chromatography (Chinese Pharmacopoeia 2020 version of the four general 0512) test, using octadecyl-bonded silica gel (Agilent Eclipse Plus C18, 4.6 mm*250 mm, 5.0 μm, P/N for 959990-902 or a chromatographic column with equivalent performance) as a filler; 0.03 mol/L phosphate buffer (4.08 g of potassium dihydrogen phosphate was dissolved in 1000 ml of water and shaken well) was used as mobile phase A and acetonitrile as mobile phase B at a flow rate of 1 ml/min, the column temperature was 30° C., the detection wavelength was 220 nm, the injection volume was 10 ul, and the sample plate was controlled to 8° C. and running for 65 min. Gradient elution was performed according to the following table: […]
Configuration of test solution: appropriate amount of the product was dissolved and diluted with a diluent (0.1% phosphoric acid-acetonitrile (80:20)) to make 1 mg/mL solution.
Chromatographic conditions: according to the high performance liquid chromatography (Chinese Pharmacopoeia 2020 version of the four general 0512) test, using octadecyl bonded silica gel (Agilent Eclipse Plus C18, 4.6 mm*250 mm, 5.0 μm, P/N 959990-902 or a chromatographic column with equivalent performance) as a filler; 0.1% phosphate buffer (1 ml of phosphoric acid in 1000 ml of water and shake well) as mobile phase A, acetonitrile as mobile phase B, flow rate of 1 ml/min, column temperature of 30° C., detection wavelength of 220 nm, injection volume of 10 ul, running for 48 minutes. Gradient elution was performed according to the following table: […]

Row | Structure (SMILES) | Stability of solid state compound, 0 Days (%) (40° C., 75% RH) | Stability of solid state compound, 30 Days (%) (40° C., 75% RH) | Stability of solid state compound, 5 Days (%) (40° C., 75% RH) | other results
1 | Cl.N[C@]1(c2ccc(C(F)(F)F)cc2)CCC[C@H](O)C1=O [Comparative compound 2, reference compound] | 99.48 | 94.26 | – | Stability of solid state compound, 10 Days (%) (40° C., 75% RH): 97.11%; Stability of solid state compound, 60 Days (%) (40° C., 75% RH, 60 days): 89.97%
2 | Cl.N#Cc1cccc(C2(N)CCCC(O)C2=O)c1 (stereo not drawn) [Comparative compound 7, reference compound] | 98.1 | – | 87.5 | –
3 | CN[C@@]1(c2ccc(C(F)(F)F)cc2)CCC[C@@H](O)C1=O.Cl [Comparative compound 8, reference compound] | 98.4 | – | 73.0 | –
4 | CCN[C@@]1(c2ccc(C(F)(F)F)cc2)CCC[C@@H](O)C1=O.Cl [Comparative compound 9, reference compound] | – | – | – | Stability of solid state compound, 0 Days (%) (25° C., 60% RH): 98.2%; Stability of solid state compound, 10 Days (%) (25° C., 60% RH): 96.8%; Stability of solid state compound, 30 Days (%) (25° C., 60% RH): 61%
5 | CC(=O)N[C@@]1(c2ccc(C(F)(F)F)cc2)CCC[C@@H](O)C1=O [Comparative compound 10, reference compound] | – | – | – | Stability of solid state compound, 0 Days (%) (25° C., 60% RH): 99.77%; Stability of solid state compound, 10 Days (%) (25° C., 60% RH): 99.69%; Stability of solid state compound, 30 Days (%) (25° C., 60% RH): 97.51%
6 | CNC1(c2cccc(OC(F)(F)F)c2)CCCC(O)C1=O.Cl (stereo not drawn) [Comparative compound 11, reference compound] | 98.15 | – | 87.8 | Stability of solid state compound, 10 Days (%) (40° C., 75% RH): 75.44%
7 | Cl.NC1(c2cccc(F)c2F)CCCC(O)C1=O (stereo not drawn) [Comparative compound 12, reference compound] | 97.16 | 94.59 | – | –
8 | Cl.NC1(c2c(F)cc(F)cc2F)CCCC(O)C1=O (stereo not drawn) [Comparative compound 13, reference compound] | 98.31 | 96.04 | – | Stability of solid state compound, 10 Days (%) (40° C., 75% RH): 97.05%
9 | Cl.NC1(c2cccc(OC(F)(F)F)c2F)CCCC(O)C1=O (stereo not drawn) [Comparative compound 14, reference compound] | 98.58 | 93.96 | – | –
10 | CC(=O)N[C@@]1(c2ccc(C(F)(F)F)cc2)CCC[C@](C)(O)C1=O [Compound 37, N-((1R,3S)-3-hydroxy-3-methyl-2-oxo-1-(4-(trifluoromethyl)phenyl)cyclohexyl)acetamide] | – | – | – | Stability of solid state compound, 0 Days (%) (25° C., 60% RH): 99.69%; Stability of solid state compound, 10 Days (%) (25° C., 60% RH): 99.65%; Stability of solid state compound, 30 Days (%) (25° C., 60% RH): 99.69%
11 | CC1(O)CCCC(N)(c2cccc(OC(F)(F)F)c2F)C1=O (stereo not drawn) [Compound 43, 2-amino-2-(2-fluoro-3-(trifluoromethoxy)phenyl)-6-hydroxy-6-methylcyclohexan-1-one hydrochloride] | 98.73 | 98.75 | – | –
12 | CC1(O)CCCC(N)(c2c(F)cc(F)cc2F)C1=O (stereo not drawn) [Compound 44, 2-amino-6-hydroxy-6-methyl-2-(2,4,6-trifluorotoluene)cyclohexan-1-one hydrochloride] | 98.45 | 98.35 | 98.53 | –
13 | CC1(O)CCCC(N)(c2cccc(C#N)c2)C1=O.Cl (stereo not drawn) [Compound 47, 3-(1-amino-3-hydroxy-3-methyl-2-oxocyclohexyl)benzonitrile hydrochloride] | 98.89 | 98.86 | 98.86 | –
14 | CC1(O)CCCC(N)(c2cccc(F)c2F)C1=O.Cl (stereo not drawn) [Compound 48, 2-amino-2-(2,3-difluorophenyl)-6-hydroxy-6-methylcyclohexan-1-one hydrochloride] | 99.25 | 99.17 | 99.28 | Stability of solid state compound, 10 Days (%) (40° C., 75% RH): 99.28%
